Test results taken from BindingDB's records for doi:10.7270/Q2TX3CTT (Broad Institute, 2010).
Counter-ions that a name gives are not always drawn.

Target: Glycogen synthase kinase-3 beta (Homo sapiens, UniProt P49841)
Experiment: concentration-response blocking of human GSK3B – biochemical, luminescence, cell-free homogeneous, retest, dose response (AID 434954)

Glycogen synthase kinase-3 beta, sequence (P49841 whole entry): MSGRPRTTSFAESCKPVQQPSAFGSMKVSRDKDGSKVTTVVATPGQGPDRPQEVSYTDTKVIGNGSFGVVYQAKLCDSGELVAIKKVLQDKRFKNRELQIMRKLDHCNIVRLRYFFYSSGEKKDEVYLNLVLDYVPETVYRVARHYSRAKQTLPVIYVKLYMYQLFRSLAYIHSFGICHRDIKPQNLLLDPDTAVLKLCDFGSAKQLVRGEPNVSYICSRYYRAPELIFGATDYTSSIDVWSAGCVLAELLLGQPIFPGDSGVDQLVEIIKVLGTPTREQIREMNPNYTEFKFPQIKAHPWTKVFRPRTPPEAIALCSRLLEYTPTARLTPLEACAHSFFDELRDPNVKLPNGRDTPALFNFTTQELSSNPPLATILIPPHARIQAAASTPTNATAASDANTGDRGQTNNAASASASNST

Question: For `Cc1nnc(SCC(=O)Nc2ccc(Cl)cn2)[nH]c1=O` [N-(5-chloro-2-pyridinyl)-2-[(6-methyl-5-oxo-2H-1,2,4-triazin-3-yl)thio]acetamide], which EC50 is on record?
Answer: Its EC50 is 36.7 µM.

Question: For `COc1ccc(-c2nn(CCC#N)cc2CN=O)cc1`, which EC50 is on record?
Answer: The EC50 was 86.3 µM.

Question: `Cc1ccc2nc(-c3ccc4c(c3)NC(=O)CO4)cn2c1` [6-(6-methyl-2-imidazo[1,2-a]pyridinyl)-4H-1,4-benzoxazin-3-one] was tested. Which EC50 did it give?
Answer: Its EC50 is over 300 µM.

Question: `CN1CCN(c2ccc([N+](=O)[O-])cc2Cl)CC1` [SMR000283168] was tested. Which EC50 did it give?
Answer: The EC50 was over 300 µM.

Question: Which EC50 does the source give for `CC1(C)CC(=O)C2C(=Nc3ccccc3NC2c2cccs2)C1` (stereo not given) [9,9-dimethyl-6-thiophen-2-yl-6,8,10,11-tetrahydro-5H-benzo[b][1,4]benzodiazepin-7-one] here?
Answer: Its EC50 is over 300 µM.

Question: For `NC(=O)c1cccc2c1C(=O)N(C1CCCCC1)C2` [2-cyclohexyl-3-oxoisoindoline-4-carboxamide], which EC50 is on record?
Answer: The EC50 was over 300 µM.

Question: For `COC(=O)c1c(C)oc2ccc(OC(=O)c3cccs3)cc12` [methyl 2-methyl-5-thiophen-2-ylcarbonyloxy-1-benzofuran-3-carboxylate], which EC50 is on record?
Answer: The EC50 was over 300 µM.

Question: For `CCOC(=O)c1[nH]c(C)c(C(=O)NCc2ccc(OC)cc2)c1C`, which EC50 is on record?
Answer: Its EC50 is over 300 µM.

Question: How did the EC50 turn out when `O=C(CCc1ccccc1)Nc1ncc([N+](=O)[O-])s1` was run?
Answer: The EC50 was over 300 µM.

Question: How did the EC50 turn out when `O=C(CSc1nnc(-c2ccncc2)o1)Oc1ccccc1` [SMR000006341] was run?
Answer: Its EC50 is over 300 µM.

Question: How did the EC50 turn out when `Cc1ccc(-n2c(C)c([N+](=O)[O-])c3ccc(O)cc32)cc1` [2-methyl-1-(4-methylphenyl)-3-nitro-indol-6-ol] was run?
Answer: Its EC50 is over 300 µM.

Question: Which EC50 does the source give for `CCOCCCn1c(=NC(C)=O)c(C#N)cc2c(=O)n3cccc(C)c3nc21` [SMR000436200] here?
Answer: Its EC50 is over 300 µM.

Question: `Cc1nc2nc(=O)c3c(n2[nH]1)NC1=C(C(=O)CC(C)(C)C1)C3c1ccc(F)cc1` (stereo not given) [MLS000084336] was tested. Which EC50 did it give?
Answer: Its EC50 is over 300 µM.

Question: How did the EC50 turn out when `NS(=O)(=O)c1cc(C(=O)NNC2=c3ccccc3=NC2=O)ccc1Cl` [2-chloro-5-[[(2-oxoindol-3-yl)amino]carbamoyl]benzenesulfonamide] was run?
Answer: Its EC50 is 43.9 µM.

Question: `Cn1c(=O)[nH]c(=O)c2c1nc(Br)n2Cc1ccccc1Cl` [MLS000031623] was tested. Which EC50 did it give?
Answer: Its EC50 is over 300 µM.

Question: Which EC50 does the source give for `CCCn1nc(NC(=O)C2CCCO2)c2cc3cccc(C)c3nc21` (stereo not given) [N-(8-methyl-1-propylpyrazolo[3,4-b]quinolin-3-yl)oxolane-2-carboxamide] here?
Answer: Its EC50 is over 300 µM.

Question: Which EC50 does the source give for `CCOC(=O)c1c(S(=O)(=O)NCC(=O)Nc2ccccc2)c(C)n(C)c1C` [MLS001028712] here?
Answer: The EC50 was over 300 µM.

Question: For `Fc1ccc(-c2nnc(SCc3cccnc3)o2)cc1` [2-(4-fluorophenyl)-5-(pyridin-3-ylmethylsulfanyl)-1,3,4-oxadiazole], which EC50 is on record?
Answer: Its EC50 is 75.5 µM.

Question: Which EC50 does the source give for `CC(C)=CCc1c(O)c(CC=C(C)C)c2c(c1O)C(=O)CC(c1ccc(O)cc1)O2` (stereo not given) [2-(4-hydroxyphenyl)-6,8-bis(3-methylbut-2-enyl)-5,7-bis(oxidanyl)-2,3-dihydrochromen-4-one] here?
Answer: The EC50 was over 300 µM.

Question: `Cc1ccc2nc3c(cc2c1)c(NC(=O)C(C)(C)C)nn3CC(C)C` [2,2-dimethyl-N-[6-methyl-1-(2-methylpropyl)pyrazolo[3,4-b]quinolin-3-yl]propanamide] was tested. Which EC50 did it give?
Answer: The EC50 was over 300 µM.

Question: For `COC1=CC(CN=Nc2ccc([N+](=O)[O-])cn2)C=C(OC)C1=O` [MLS001173549], which EC50 is on record?
Answer: The EC50 was 5.41 µM.

Question: How did the EC50 turn out when `CN1/C(=C/C=C(/C#N)C(N)=O)C(C)(C)c2ccccc21` [(Z,4E)-2-cyano-4-(1,3,3-trimethyl-2-indolylidene)-2-butenamide] was run?
Answer: Its EC50 is 15.5 µM.

Question: With `CC(C)Nc1nnc(SCC(=O)NCc2ccc3c(c2)OCO3)s1` [SMR000375706] as the molecule, how does the EC50 read?
Answer: Its EC50 is over 300 µM.

Question: How did the EC50 turn out when `CC1CN(c2nc(Nc3ccccc3)nc(N)c2[N+](=O)[O-])CC(C)O1` (stereo not given) was run?
Answer: The EC50 was 35.9 µM.

Question: With `O=C(c1noc2c1CCc1ccccc1-2)N1CCOCC1` [3-(morpholin-4-ylcarbonyl)-4,5-dihydronaphtho[2,1-d]isoxazole] as the molecule, how does the EC50 read?
Answer: The EC50 was over 300 µM.

Question: `CCCN(C(=O)CCNC(=O)Cn1cnc2ccccc2c1=O)c1cccc(Cl)c1` [N-(3-chlorophenyl)-3-[[2-(4-oxoquinazolin-3-yl)acetyl]amino]-N-propylpropanamide] was tested. Which EC50 did it give?
Answer: The EC50 was over 300 µM.

Question: `CCC(=NNC(=S)Nc1cccc(C)c1)c1ccccc1` was tested. Which EC50 did it give?
Answer: The EC50 was over 300 µM.

Question: Which EC50 does the source give for `O=C(C1CCCO1)N1N=C(c2ccc(Br)cc2)CC1c1ccco1` (stereo not given) [MLS000699386] here?
Answer: Its EC50 is over 300 µM.

Question: `COc1cccc(C2c3cc4c(cc3N=C3CC(C)(C)CC(=O)C32)OCO4)c1` (stereo not given) [MLS000522404] was tested. Which EC50 did it give?
Answer: The EC50 was over 300 µM.

Question: For `COc1cccc(OC)c1OCCNCC1COc2ccccc2O1` (stereo not given) [WB-4101 hydrochloride], which EC50 is on record?
Answer: Its EC50 is over 300 µM.

Question: For `COc1ccc(CC(=O)OCC(=O)Nc2ccc(Cl)cn2)cc1` [MLS000566076], which EC50 is on record?
Answer: Its EC50 is 107 µM.

Question: `CC(C(=O)NCc1ccco1)n1cc([N+](=O)[O-])cn1` (stereo not given) [N-(2-furylmethyl)-2-(4-nitro-1H-pyrazol-1-yl)propanamide] was tested. Which EC50 did it give?
Answer: Its EC50 is over 300 µM.

Question: `COC(=O)Cc1ccc2sc(-c3ccccc3)nc2c1` [(2-Phenyl-benzothiazol-5-yl)-acetic acid methyl ester] was tested. Which EC50 did it give?
Answer: Its EC50 is over 300 µM.

Question: For `CCOc1cccc(-c2c(C(=O)NN=C(C)c3cccs3)nnn2-c2nonc2N)c1` [1-(4-azanyl-1,2,5-oxadiazol-3-yl)-5-(3-ethoxyphenyl)-N-(1-thiophen-2-ylethylideneamino)-1,2,3-triazole-4-carboxamide], which EC50 is on record?
Answer: The EC50 was 96.9 µM.

Question: With `Cc1c(O)ccc(C(=O)CN2CCN(c3ccc(F)cc3)CC2)c1O` [1-(2,4-dihydroxy-3-methylphenyl)-2-[4-(4-fluorophenyl)-1-piperazinyl]ethanone] as the molecule, how does the EC50 read?
Answer: Its EC50 is over 300 µM.

Question: `O=C(N[N-][CH+]c1ccc(N2CCCC2)c([N+](=O)[O-])c1)c1cccnc1` [N-[(3-nitro-4-pyrrolidin-1-ylphenyl)methylideneamino]pyridine-3-carboxamide] was tested. Which EC50 did it give?
Answer: The EC50 was over 300 µM.

Question: How did the EC50 turn out when `COCCCNC(=O)c1ccc(CS(=O)(=O)c2ccc(OC)cc2)o1` [5-[(4-methoxyphenyl)sulfonylmethyl]-N-(3-methoxypropyl)furan-2-carboxamide] was run?
Answer: Its EC50 is over 300 µM.

Question: With `O=C(NCC(c1ccco1)N1CCN(c2ccc(F)cc2)CC1)c1cccs1` (stereo not given) [SMR000808277] as the molecule, how does the EC50 read?
Answer: Its EC50 is over 300 µM.

Question: `CCCc1nc2c([nH]1)c(=O)n(C)c(=O)n2C` was tested. Which EC50 did it give?
Answer: Its EC50 is over 300 µM.

Question: For `CCn1c(SCC(=O)Nc2ccccc2Cl)nnc1C1CC1` [N-(2-chlorophenyl)-2-[(5-cyclopropyl-4-ethyl-1,2,4-triazol-3-yl)sulfanyl]ethanamide], which EC50 is on record?
Answer: The EC50 was over 300 µM.

Question: For `O=C(NCCO)Nc1ccc2nsnc2c1` [MLS000708760], which EC50 is on record?
Answer: The EC50 was over 300 µM.

Question: With `CCOc1ccc2c(c1)-c1c(ssc1=S)C(C)(C)N2` [SMR000116364] as the molecule, how does the EC50 read?
Answer: The EC50 was over 300 µM.

Question: `CCOC(=O)C1C(C)=Nc2ncnn2C1c1c[nH]c2ccccc12` (stereo not given) [MLS000089006] was tested. Which EC50 did it give?
Answer: Its EC50 is 4.64 µM.

Question: How did the EC50 turn out when `CC(C)c1ccc(NC2=CC(=O)CC(C)(C)C2)cc1` [SMR000558851] was run?
Answer: Its EC50 is over 300 µM.

Question: Which EC50 does the source give for `O=C(COc1ccc(Cl)cc1)Nc1ncc([N+](=O)[O-])s1` here?
Answer: Its EC50 is 26.3 µM.

Question: `CCO[C@H]1OC(C(=O)N2CCN(Cc3ccccc3)CC2)=C[C@@H](C)[C@@H]1CCCO` was tested. Which EC50 did it give?
Answer: The EC50 was over 300 µM.

Question: `CC(OC(=O)c1nsc(Cl)c1Cl)C(=O)NCc1ccco1` (stereo not given) [MLS000074009] was tested. Which EC50 did it give?
Answer: The EC50 was over 100 µM.

Question: For `COc1ccc(C=C2SC(Nc3ccccc3)=NC2=O)cc1` [5-(4-Methoxy-benzylidene)-2-phenylimino-thiazolidin-4-one], which EC50 is on record?
Answer: The EC50 was over 300 µM.

Question: With `O=S(=O)(NCCC1CC1(Cl)Cl)c1ccc(Cl)cc1` (stereo not given) [N1-[2-(2,2-dichlorocyclopropyl)ethyl]-4-chlorobenzene-1-sulfonamide] as the molecule, how does the EC50 read?
Answer: Its EC50 is over 300 µM.

Question: Which EC50 does the source give for `CCCN(CCC)Cc1c(C(=O)NN=Cc2ccoc2)nnn1-c1nonc1N` [1-(4-amino-1,2,5-oxadiazol-3-yl)-5-[(dipropylamino)methyl]-N-(3-furanylmethylideneamino)-4-triazolecarboxamide] here?
Answer: The EC50 was 8.52 µM.
